# Test results reported in ChEMBL document CHEMBL3045426, “Synthesis, Antiviral and Antibacterial Activities of Isatin Mannich Bases” (Med Chem Res, 2005).
# Legend:
# [1] = Selectivity index, ratio of CC50 for human MT4 cells to EC50 for HIV1 3B infected in MT4 cells; assay type: toxicity, cell-based; conditions: read-out: Ratio CC50/EC50
# Vibrio cholerae [2] = test: Antimicrobial activity against Vibrio cholerae 01 after 18 to 20 hr by agar dilution method; assay type: functional; conditions: 1
# Priestia megaterium = test: Antimicrobial activity against Bacillus megaterium after 18 to 20 hr by agar dilution method; assay type: functional
# Enterobacter = test: Antimicrobial activity against Enterobacter after 18 to 20 hr by agar dilution method; assay type: functional
# Citrobacter freundii = test: Antimicrobial activity against Citrobacter freundii after 18 to 20 hr by agar dilution method; assay type: functional
# Salmonella enteritidis = test: Antimicrobial activity against Salmonella enterica subsp. enterica serovar Enteritidis after 18 to 20 hr by agar dilution method; assay type: functional
# Salmonella typhimurium = test: Antimicrobial activity against Salmonella enterica subsp. enterica serovar Typhimurium after 18 to 20 hr by agar dilution method; assay type: functional
# Proteus mirabilis = test: Antimicrobial activity against Proteus mirabilis after 18 to 20 hr by agar dilution method; assay type: functional
# Proteus vulgaris = test: Antimicrobial activity against Proteus vulgaris after 18 to 20 hr by agar dilution method; assay type: functional
# Edwardsiella tarda = test: Antimicrobial activity against Edwardsiella tarda after 18 to 20 hr by agar dilution method; assay type: functional
# Escherichia coli = test: Antimicrobial activity against Escherichia coli NCTC 10418 after 18 to 20 hr by agar dilution method; assay type: functional
# Salmonella typhi = test: Antimicrobial activity against Salmonella enterica subsp. enterica serovar Typhi after 18 to 20 hr by agar dilution method; assay type: functional
# Salmonella paratyphi = test: Antimicrobial activity against Salmonella enterica subsp. enterica serovar Paratyphi A after 18 to 20 hr by agar dilution method; assay type: functional
# Vibrio parahaemolyticus = test: Antimicrobial activity against Vibrio parahaemolyticus after 18 to 20 hr by agar dilution method; assay type: functional
# Vibrio cholerae [3] = test: Antimicrobial activity against Vibrio cholerae 0139 after 18 to 20 hr by agar dilution method; assay type: functional; conditions: 139
# Vibrio fluvialis = test: Antimicrobial activity against Vibrio fluvialis after 18 to 20 hr by agar dilution method; assay type: functional
# Vibrio mimicus = test: Antimicrobial activity against Vibrio mimicus after 18 to 20 hr by agar dilution method; assay type: functional
# Pseudomonas aeruginosa = test: Antimicrobial activity against Pseudomonas aeruginosa after 18 to 20 hr by agar dilution method; assay type: functional
# Staphylococcus aureus = test: Antimicrobial activity against Staphylococcus aureus after 18 to 20 hr by agar dilution method; assay type: functional
# Morganella morganii = test: Antimicrobial activity against Morganella morganii after 18 to 20 hr by agar dilution method; assay type: functional
# Shigella boydii = test: Antimicrobial activity against Shigella boydii after 18 to 20 hr by agar dilution method; assay type: functional
# Plesiomonas = test: Antimicrobial activity against Plesiomonas after 18 to 20 hr by agar dilution method; assay type: functional
# Shigella sonnei = test: Antimicrobial activity against Shigella sonnei after 18 to 20 hr by agar dilution method; assay type: functional
# Klebsiella pneumoniae [4] = test: Antimicrobial activity against Klebsiella pneumoniae after 18 to 20 hr by agar dilution method; assay type: functional
# Klebsiella pneumoniae [5] = test: Antimicrobial activity against Klebsiella pneumoniae subsp. ozaenae after 18 to 20 hr by agar dilution method; assay type: functional
# [6] = system: Mycobacterium tuberculosis; test: Antimycobacterial activity against Mycobacterium tuberculosis H37Rv ATCC 27294 at 6.25 ug/ml by MABA; assay type: functional
# [7] = Cytotoxicity against Homo sapiens (human) HuH7 cells assessed as cell growth at 50 ug/ml after 3 days by Neutral red assay; assay type: cell-based, Huh-7; conditions: read-out: Activity
# [8] = Cytotoxicity against Homo sapiens (human) MT4 cells after 5 days by MTT assay; assay type: cell-based
# [9] = system: Human immunodeficiency virus 1; test: Antiviral activity against Human immunodeficiency virus 1 IIIB infected MT4 cells assessed as inhibition of virus-induced cytopathicity after 5 days by MTT assay; assay type: functional, organism-based; conditions: MT4, 120 h
# Hepatitis C virus = test: Antiviral activity against Hepatitis C virus BM4-5 infected in Huh7 cells assessed as inhibition of viral RNA replication by phosphor screening method; assay type: functional, Hepacivirus hominis, Huh-7
# [10] = system: Human immunodeficiency virus 1; test: Antiviral activity against Human immunodeficiency virus 1 IIIB infected MT4 cells assessed as protection against viral infection after 5 days by MTT assay; assay type: functional; set-up: concentration or dose not given beside the values
# [11] = Cytotoxicity against Homo sapiens (human) CEM cells after 5 days by MTT assay; assay type: cell-based; conditions: CEM cells (CCRF-CEM)
# [12] = system: Human immunodeficiency virus 1; test: Antiviral activity against Human immunodeficiency virus 1 IIIB infected CEM cells assessed as protection against viral infection after 6 days by XTT assay; assay type: functional, CCRF-CEM; set-up: concentration or dose not given beside the values
# [13] = system: Human immunodeficiency virus 1; test: Antiviral activity against Human immunodeficiency virus 1 IIIB infected CEM cells assessed as inhibition of virus-induced cytopathicity after 6 days by XTT assay; assay type: functional, organism-based; conditions: CCRF-CEM, 144 h
Structure (SMILES),MIC (Vibrio cholerae [2]) [µg/mL],MIC (Priestia megaterium) [µg/mL],MIC (Enterobacter) [µg/mL],MIC (Citrobacter freundii) [µg/mL],MIC (Salmonella enteritidis) [µg/mL],MIC (Salmonella typhimurium) [µg/mL],MIC (Proteus mirabilis) [µg/mL],MIC (Proteus vulgaris) [µg/mL],MIC (Edwardsiella tarda) [µg/mL],MIC (Escherichia coli) [µg/mL],MIC (Salmonella typhi) [µg/mL],MIC (Salmonella paratyphi) [µg/mL],MIC (Vibrio parahaemolyticus) [µg/mL],MIC (Vibrio cholerae [3]) [µg/mL],MIC (Vibrio fluvialis) [µg/mL],MIC (Vibrio mimicus) [µg/mL],MIC (Pseudomonas aeruginosa) [µg/mL],MIC (Staphylococcus aureus) [µg/mL],MIC (Morganella morganii) [µg/mL],MIC (Shigella boydii) [µg/mL],also measured
CCCCN(CCCC)CN1C(=O)/C(=N\c2ncc(Cc3cc(OC)c(OC)c(OC)c3)c(N)n2)c2cc(Cl)ccc21,0.61,1250,1250,1250,625,1250,1250,1250,1250,1250,1250,625,19.5,625,1250,4.88,2500,1250,625,39.1,"selectivity ratio [1]: 3; MIC (Plesiomonas): 39.1 µg/mL; MIC (Shigella sonnei): 1250 µg/mL; MIC (Klebsiella pneumoniae [4]): 1250 µg/mL; MIC (Klebsiella pneumoniae [5]): 1250 µg/mL; inhibition at 6.25 µg/mL [6]: 67%; viability at 72 h, 50 ug/ml [7]: 48%; CC50 at 120 h [8]: 62.6 µg/mL; EC50 [9]: 16.1 µg/mL; inhibition (INH) (Hepatitis C virus): 84%; Activity [10]: 73.2%"
COc1cc(Cc2cnc(/N=C3\C(=O)N(CN4CCN(C)CC4)c4ccc(Cl)cc43)nc2N)cc(OC)c1OC,1.22,1250,312,1250,1250,1250,1250,1250,625,1250,1250,156,0.61,312,1250,1.22,1250,1250,1250,19.5,"MIC (Plesiomonas): 4.88 µg/mL; MIC (Shigella sonnei): 1250 µg/mL; MIC (Klebsiella pneumoniae [4]): 1250 µg/mL; MIC (Klebsiella pneumoniae [5]): 1250 µg/mL; inhibition at 6.25 µg/mL [6]: 35%; viability at 72 h, 50 ug/ml [7]: 83%; CC50 at 120 h [11]: 88 µg/mL; Activity [12]: 21.09%; EC50 [13]: > 88 µg/mL; CC50 at 120 h [8]: 80.7 µg/mL; EC50 [9]: > 80.7 µg/mL; inhibition (INH) (Hepatitis C virus): 71%; Activity [10]: 48.6%"
COc1cccc(N2CCN(CN3C(=O)/C(=N\c4ncc(Cc5cc(OC)c(OC)c(OC)c5)c(N)n4)c4cc(Cl)ccc43)CC2)c1,1.22,1250,1250,1250,1250,2500,2500,1250,1250,2500,1250,156,2.44,312,1250,0.61,2500,156,2500,0.61,"MIC (Plesiomonas): 0.61 µg/mL; MIC (Shigella sonnei): 625 µg/mL; MIC (Klebsiella pneumoniae [4]): 625 µg/mL; MIC (Klebsiella pneumoniae [5]): 1250 µg/mL; inhibition at 6.25 µg/mL [6]: 33%; viability at 72 h, 50 ug/ml [7]: 71%; CC50 at 120 h [11]: 23.3 µg/mL; Activity [12]: 21.93%; EC50 [13]: > 23.3 µg/mL; CC50 at 120 h [8]: 32.6 µg/mL; EC50 [9]: > 32.6 µg/mL; inhibition (INH) (Hepatitis C virus): 100%; Activity [10]: 10.7%"
COc1cc(Cc2cnc(/N=C3\C(=O)N(CN4CCN(Cc5ccccc5)CC4)c4ccc(Cl)cc43)nc2N)cc(OC)c1OC,4.88,625,625,625,625,625,625,625,625,625,625,625,9.76,625,625,2.44,1250,625,625,39.1,"MIC (Plesiomonas): 39.1 µg/mL; MIC (Shigella sonnei): 1250 µg/mL; MIC (Klebsiella pneumoniae [4]): 625 µg/mL; MIC (Klebsiella pneumoniae [5]): 1250 µg/mL; inhibition at 6.25 µg/mL [6]: 50%; viability at 72 h, 50 ug/ml [7]: 79%; CC50 at 120 h [11]: 94.7 µg/mL; Activity [12]: 22.33%; EC50 [13]: > 94.7 µg/mL; CC50 at 120 h [8]: 36.1 µg/mL; EC50 [9]: > 36.1 µg/mL; inhibition (INH) (Hepatitis C virus): 66%; Activity [10]: 41.8%"
COc1cc(Cc2cnc(/N=C3\C(=O)N(CN4CCN(c5cccc(Cl)c5)CC4)c4ccc(Cl)cc43)nc2N)cc(OC)c1OC,0.61,1250,625,1250,1250,625,1250,1250,1250,1250,1250,1250,1.22,625,625,9.76,156,1250,1250,19.5,"MIC (Plesiomonas): 19.5 µg/mL; MIC (Shigella sonnei): 1250 µg/mL; MIC (Klebsiella pneumoniae [4]): 1250 µg/mL; MIC (Klebsiella pneumoniae [5]): 1250 µg/mL; inhibition at 6.25 µg/mL [6]: 44%; viability at 72 h, 50 ug/ml [7]: 67%; CC50 at 120 h [11]: 34.4 µg/mL; Activity [12]: 23%; EC50 [13]: > 34.4 µg/mL; CC50 at 120 h [8]: 39.2 µg/mL; EC50 [9]: > 39.2 µg/mL; inhibition (INH) (Hepatitis C virus): 96%; Activity [10]: 20.9%"
